Experimental data published in PubChem BioAssay (NCI).
Values joined by “and” are separate entries in the source; they are usually repeats but may differ in a detail not shown here. Equal values may be shown once.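 Tested at 5 concentrations; 48 h exposure; 96-well plates; endpoints linearly interpolated, else capped at highest concentration. The concentration for 50% growth inhibition is given as GI50. TGI marks complete inhibition of growth.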

Key:
Experiment in all cases: growth of human tumour cells (NCI), 48 h
CAKI-1 renal = system: CAKI-1 renal
SK-MEL-5 melanoma = system: SK-MEL-5 melanoma
LXFL 529 NSCLC = system: LXFL 529 NSCLC
HCT-116 colon = system: HCT-116 colon
DMS 273 small cell lung = system: DMS 273 small cell lung
MALME-3M melanoma = system: MALME-3M melanoma
SF-268 CNS = system: SF-268 CNS
DU-145 prostate = system: DU-145 prostate
HOP-92 NSCLC = system: HOP-92 NSCLC
KM12 colon = system: KM12 colon

| SMILES | GI50 (CAKI-1 renal) | TGI (CAKI-1 renal) | GI50 (SK-MEL-5 melanoma) | TGI (SK-MEL-5 melanoma) | GI50 (LXFL 529 NSCLC) | TGI (LXFL 529 NSCLC) | GI50 (HCT-116 colon) | TGI (HCT-116 colon) | GI50 (DMS 273 small cell lung) | TGI (DMS 273 small cell lung) | GI50 (MALME-3M melanoma) | TGI (MALME-3M melanoma) | TGI (SF-268 CNS) | TGI (DU-145 prostate) | TGI (HOP-92 NSCLC) | TGI (KM12 colon) | GI50 (SF-268 CNS) | GI50 (DU-145 prostate) | GI50 (HOP-92 NSCLC) | GI50 (KM12 colon) |
| --- | --- | --- | --- | --- | --- | --- | --- | --- | --- | --- | --- | --- | --- | --- | --- | --- | --- | --- | --- | --- |
| CC(=O)[CH-]C(C)=O.CC(=O)[CH-]C(C)=O.[Cl-].[O]=[V] | 55.3 µM | > 100 µM | 28.4 µM | 70.6 µM | 47.5 µM | > 100 µM | 19.1 µM | 48.3 µM | 20.9 µM | 39.7 µM | 9.76 µM | 27.9 µM | – | – | – | – | – | – | – | – |
| O=S(=O)(O)n1ccnc1 (tested in a mixture with another compound) | – | > 100 µM | – | > 100 µM | – | – | – | > 100 µM | – | – | – | > 100 µM | > 100 µM | > 100 µM | > 100 µM | > 100 µM | – | – | – | – |
| CCN(CC)CCn1c(=O)c2cc(OC)c(OC)cc2c2ccc3cc4c(cc3c21)OCO4 | 0.222 µM | 15.1 µM | 0.193 µM | 0.457 µM | – | – | 0.377 µM | 6.2 µM | – | – | 0.354 µM | 14.5 µM | 37.8 µM | 6.93 µM | > 50 µM | 23.9 µM | 0.228 µM | 0.321 µM | 0.49 µM | 0.734 µM |
| CCOC(=O)Nc1ccc2c(c1)C(=O)N(CC)c1ccccc1O2 | 0.179 µM | > 100 µM | 0.106 µM | 2.33 µM | – | – | 0.0829 µM | > 100 µM | – | – | 31.8 µM | > 100 µM | > 100 µM | – | > 100 µM | > 100 µM | 0.26 µM | 0.127 µM | 1.5 µM | 0.0661 µM |
| O=c1cc(-c2ccccc2)oc2c1ccc1ccccc12 | 18 µM | > 100 µM | 20.2 µM | 65.3 µM | – | – | 20.3 µM | > 100 µM | – | – | 29.1 µM | 72.1 µM | > 100 µM | > 100 µM | 45.5 µM | 89.2 µM | 37.3 µM | 30.6 µM | 9.25 µM | 24.9 µM |
| COc1ccc(-c2cc(-c3ccc(OC)cc3)nc(NCCCNc3ccnc4cc(Cl)ccc34)n2)cc1 | 11.8 µM | 25.8 µM | 1.54 µM | 2.89 µM | – | – | 1.45 µM | 2.76 µM | – | – | 1.76 µM | 3.26 µM | 3.3 µM | 3.38 µM | 2.64 µM | 3.28 µM | 1.65 µM | 1.88 µM | 1.24 µM | 1.78 µM |
| CCCCC(OC(=O)c1ccc(N)cc1)C(=O)Nc1nc(CC(=O)OCC)cs1 (configuration not stated) | 39.1 µM | > 100 µM | 17.8 µM | 34.5 µM | – | – | 37.3 µM | > 100 µM | – | – | 30.1 µM | > 100 µM | > 100 µM | > 100 µM | > 100 µM | > 100 µM | 43.5 µM | 36 µM | 37.5 µM | 41.4 µM |
| CCOC(=O)c1c2c(n3ccc(NC(=O)CCN4CCCCC4)cc13)C(=O)c1ncccc1C2=O | 0.0279 µM | 4.18 µM | 0.541 µM | 1.98 µM | – | – | 0.106 µM | 2.21 µM | – | – | 1.16 µM | 2.73 µM | 2.25 µM | 2.54 µM | 24.6 µM | 2.76 µM | 0.0503 µM | 1.2 µM | 9.63 µM | 1.22 µM |
| [Co].[O-]c1cccnc1C=Nc1ccccc1.[OH3+] | – | – | > 100 µM | > 100 µM | 47.2 µM | > 100 µM | > 100 µM | > 100 µM | > 100 µM | > 100 µM | > 100 µM | > 100 µM | > 100 µM | – | > 100 µM | > 100 µM | 99.3 µM | – | 28.7 µM | > 100 µM |
| CCOC(=O)c1c(-c2ccc(OC)c(O)c2)c(C#N)c(=S)n(C2OC(COC(C)=O)C(OC(C)=O)C(OC(C)=O)C2OC(C)=O)c1-c1ccccc1 (configuration not stated) | 34.5 µM and > 100 µM | > 100 µM | 15.5 µM and > 100 µM | 33.4 µM and > 100 µM | – | – | 35.7 µM and > 100 µM | > 100 µM | – | – | – | 57 µM | > 100 µM | 76.3 µM and > 100 µM | 87.9 µM and > 100 µM | 83.1 µM and > 100 µM | 34 µM and > 100 µM | 27.3 µM and > 100 µM | – | 27 µM and > 100 µM |
| CCOC(=O)CNC(=O)OCc1ccccc1 | – | > 100 µM | – | – | – | > 100 µM | – | > 100 µM | – | > 100 µM | – | > 100 µM | > 100 µM | – | > 100 µM | > 100 µM | – | – | – | – |
| NNc1nc2ccccc2o1 | – | > 100 µM | – | > 100 µM | – | – | – | > 100 µM | – | – | – | > 100 µM | > 100 µM | > 100 µM | > 100 µM | > 100 µM | – | – | – | – |
| FC(F)(F)c1nc(SCc2ccc(Cl)cc2)n[nH]1 | – | > 100 µM | – | > 100 µM | – | – | – | > 100 µM | – | – | – | > 100 µM | > 100 µM | > 100 µM | > 100 µM | > 100 µM | – | – | – | – |
| CN=C1CN=C(OP(=O)(N2CCOCC2)N2CCOCC2)c2cc(Cl)ccc2N1 | – | > 100 µM | – | > 100 µM | – | > 100 µM | – | > 100 µM | – | > 100 µM | – | > 100 µM | – | – | – | > 100 µM | – | – | – | – |
| CO/C=C(\Br)c1ccc2c(c1)OCO2 | – | > 100 µM | – | – | – | > 100 µM | – | > 100 µM | – | > 100 µM | – | > 100 µM | > 100 µM | – | > 100 µM | > 100 µM | – | – | – | – |
| COC(=O)C1=C(C(=O)ON)[C@@H]2C=C[C@@]1([C@@H](Cc1ccccc1)Nc1ccccc1)O2 | 1.61 µM | 2.96 µM | 14.7 µM | 27.8 µM | – | – | 1.67 µM | 3.24 µM | – | – | 1.69 µM | 3.2 µM | 28.5 µM | 3.67 µM | 2.88 µM | 32.1 µM | 14 µM | 1.84 µM | 1.5 µM | 15.5 µM |
| C/C(=C\C(C[C@](C)(O)C(O)CCC#C[Si](C)(C)C)S(=O)(=O)c1ccccc1)CC/C=C/CO[Si](C)(C)C(C)(C)C (some centres not stated) | – | 33 µM | – | 28.1 µM | – | – | – | 26.6 µM | – | 30.6 µM | – | 40.4 µM | – | – | 25.5 µM | 32.6 µM | – | – | – | – |
| O=c1oc2ccc(Cl)cc2c(=O)n1-c1ccc(F)cc1F | 1.45 µM | 5.6 µM | 1.11 µM | 2.46 µM | – | – | 2.53 µM | 10.4 µM | – | – | 1.11 µM | 5.38 µM | 15.8 µM | 46.6 µM | 0.176 µM | 10.2 µM | 2.21 µM | 3.75 µM | – | 2.72 µM |
